Molecules are shown by their SMILES. “Also recorded” adds a separate entry of the source.

In general, IC50 refers to the concentration that gives 50% inhibition. One may read the melting point as the temperature of the solid-liquid transition.

The target in one data set is mushroom tyrosinase (Agaricus bisporus, UniProt C7FF04). In words: Enzyme kinetic analysis of mushroom tyrosinase (Lineweaver–Burk and Dixon plots). The class given is biochemical. The conditions noted are these: L-tyrosine substrate 0.5–4 mM. How it is done: Lineweaver–Burk and Dixon plots were used to calculate the inhibition mode and inhibition constant (Ki) against mushroom tyrosinase. Kinetic parameters for various concentrations of the L-tyrosine substrate (0.5–4 mM) and inhibitors (0.4, 2, and 10 µM for compound 1; and 2, 4, and 8 µM for compound 2; and 2.5, 5, and 10 µM for compound 3, respectively) were achieved.
To elucidate the type of enzymatic inhibition, a kinetic analysis was accomplished at several concentrations of the L-tyrosine substrate and inhibitors (1–3), according to the Lineweaver–Burk and Dixon plot methods (Table 3 and Figure 2). […] Furthermore, the Dixon plot is a graphical method [plot of 1/enzyme velocity (1/V) against inhibitor concentration (I)] used to determine the type of enzymatic inhibition and the dissociation or inhibition constant (Kic) for the enzyme-inhibitor complex.
Figure 2 Enzymatic kinetics study of compounds 1–3 against tyrosinase. Lineweaver–Burk plots for the inhibition of mushroom tyrosinase of compounds 1 (A), 2 (B), and 3 (C). Dixon plots for tyrosinase inhibition of compounds 1 (D), 2 (E), and 3 (F) using L-tyrosine as the substrate.

Data set [1] can be described thus: ROS scavenging activity, DCFDA assay, cell-free in vitro. The conditions noted are these: SIN-1-induced oxidative stress. How it is done: (§1) ROS scavenging activity was determined according to the method reported by Ali et al. and Lebel and Bondy. Briefly, 2′,7′-Dichlorodihydrofluorescein-diacetate (DCFH-DA) (2.5 mM, Molecular Probes, Eugene, OR, USA) mixed with esterase (1.5 units/mL), was incubated at 37 °C for 30 min and placed on ice in the dark until immediately prior to the study. Phosphate buffer (50 mM) at pH 7.4 was used. To determine intracellular ROS scavenging activity, B16F10 cells (1 × 10^4/well) were seeded in black 96-well plates. After 24 h, the cells were incubated with DCFH-DA (20 µM) and SIN-1 ([…]) for 30 min to induce ROS generation. The fluorescence intensity of oxidized DCFH was measured using a fluorescent microplate reader at excitation and emission wavelengths of 485 and 530 nm, respectively (Tecan, Männedorf, Switzerland). Trolox was used as the positive control.
ROS may regulate melanogenesis in melanoma cells. The principle of the intracellular ROS assay is that DCF-DA spreads through the cell membrane and is enzymatically hydrolyzed to […] by esterase; DCFH then responses with ROS to yield DCF [56]. The ROS scavenging activity of compounds 1–3 was investigated in vitro by using fluorescence probes, (DCF-DA) for ROS. SIN-1 is used as an NO donor [57, 58]. […] . […] The importance of catechol moiety (3,4-dihydroxy group) for ROS scavenging activity was reported in previous studies in the literature.
Figure 5 Reactive oxygen species (ROS) scavenging activity of compound 2. The inhibitory effect of compound 2 on ROS production was evaluated. A DCFDA assay was performed to determine ROS levels. The ROS scavenger trolox was used as the positive control. The scavenging activity of compound 2 on oxidative stress induced by 10 µM SIN-1 was estimated in cell-free in vitro (A). B16F10 cells were pre-treated with compound 2 and trolox for 3 h and further treated with 10 µM SIN-1 (B).

In data set [2] the test system is B16F10 cells. Kind of data set: Melanin contents in α-MSH and IBMX-induced B16F10 cells. The conditions noted are these: α-MSH and IBMX 48 h, 5, 10 and 20 µM.
Description: All results were standardized to the total protein concentration of the cell lysates using the bicinchoninic acid (BCA) reagent (Thermo Fisher Scientific, Waltham, MA, USA).
Data set [3] relates to B16F10 cells. Kind of data set: Intracellular ROS levels in SIN-1-treated B16F10 cells. The class given is cell-based, mouse. The conditions noted are these: pre-treated 3 h, then SIN-1. How it is done:
as §1
ROS may regulate melanogenesis in melanoma cells. The principle of the intracellular ROS assay is that DCF-DA spreads through the cell membrane and is enzymatically hydrolyzed to […] by esterase; DCFH then responses with ROS to yield DCF [56]. The ROS scavenging activity of compounds 1–3 was investigated in vitro by using fluorescence probes, (DCF-DA) for ROS. SIN-1 is used as an NO donor [57, 58]. […]
Figure 5 Reactive oxygen species (ROS) scavenging activity of compound 2. The inhibitory effect of compound 2 on ROS production was evaluated. […]

Data set [4] deals with tyrosinase, p-CREB, p-PKA, MITF, p-JNK, p-ERK, p-p38. In words: Western blot analysis of melanogenic signaling proteins in α-MSH- and IBMX-induced B16F10 cells. Format: cell-based, mouse. The method, then:
Lysed samples were boiled for 10 min with gel-loading buffer (0.125 M Tris-HCl, pH 6.8, 4% SDS, 10% 2-mercaptoethanol and 0.2% bromophenol blue) at a volume ratio of 1:1. Total protein equivalents were separated with SDS-PAGE using 9–10% acrylamide gels and then transferred onto polyvinylidene fluoride membranes (Millipore, Burlington, MA, USA) at 25 V for 10 min in a semi-dry transfer system (Bio-Rad Laboratories, Hercules, CA, USA). The membranes were immediately placed in blocking buffer (5% non-fat milk) in 10 mM Tris (pH 7.5), 100 mM NaCl, and 0.1% Tween-20. The blots were blocked at room temperature for 1 h. The membranes were incubated with appropriate specific primary antibodies at 4 °C overnight and then treated with horseradish peroxidase-conjugated anti-mouse, anti-rabbit or anti-goat antibodies (1:5000) at 25 °C for 1 h (Santa Cruz Biotechnology, Dallas, TX, USA). Protein bands were visualized using the SuperSignal® West Pico Chemiluminescent Substrate kit (Advansta, San Jose, CA, USA) and Davinch-Chemi^TM (Davinch-K, Seoul, Korea).
It is important to determine whether the inhibition of melanin synthesis by compound 2 is related to melanogenesis signaling and gene expression. […] MITF, a leucine zipper transcription factor, activates the expression of multiple genes encoding enzymes involved in the conversion of tyrosine into melanin, resulting in increased levels of these melanin-producing proteins. […] The skin is site of oxidative stress due to exposure to daylight and environmental oxidizing pollutants. It is known that ROS stimulates α-MSH- and IBMX-induced production in melanoma cells leading to melanogenesis by upregulating MITF, a transcription factor that induces tyrosinase gene expression. […] However, the levels of phosphorylated p38 were not affected by treatment with compound 2. In our study, both p-JNK and p-ERK were decreased by compound 2.
Figure 7 Effects of compound 2 on melanogenic proteins and mRNA levels in α-MSH- and IBMX-induced B16F10 cells. […] The expression levels of tyrosinase, p-CREB, p-PKA, p-JNK, p-ERK, p-p38, and β-actin were determined with Western blotting in the cytosolic fraction. β-actin was used as the loading control (A,B,D,E). The expression levels of MITF and TFIIB were determined with Western blotting in the nuclear fraction. TFIIB was used as the loading control (C). Relative mRNA levels of the melanogenic genes MITF, Tyrosinase, Trp1, and Trp2 in the cells were quantified using real-time qPCR and normalized to the GAPDH mRNA level (F).

Data set [5] deals with MITF, tyrosinase, TRP1, TRP2 mRNA. Kind of data set: Real-time qPCR of melanogenic genes in α-MSH- and IBMX-induced B16F10 cells. Format: cell-based, mouse. The conditions noted are these: normalized to GAPDH. The method, then: RNA from cell samples was purified using the RiboEx Total RNA solution (GeneAll Biotechnology, Seoul, Korea) according to the manufacturer’s instructions. Total RNA (2 µg) treated with ribonuclease (RNase) free deoxyribonuclease (DNase) was reverse-transcribed using Hyperscript^TM One-Step RT-PCR (GeneAll Biotechnology, Seoul, Korea). Real-time qPCR was performed using the SensiFAST^TM SYBR® No-ROX dye (Bioline, London, UK.) and a CFX Connect System (Bio-Rad Laboratories, Hercules, CA, USA). Relative gene expression was calculated with the standard curve method using GAPDH as the internal control. Ct values were obtained with qPCR. Three independent tests were performed.
The effects of compound 2 on the expression of mRNA melanogenic factors were evaluated in α-MSH- and IBMX-induced B16F10 cells. […] The mRNA levels of tyrosinase, TRP1, TRP2, and MITF were quantified with real-time qPCR (Figure 7F).
Figure 7 Effects of compound 2 on melanogenic proteins and mRNA levels in α-MSH- and IBMX-induced B16F10 cells. […] The expression levels of tyrosinase, p-CREB, p-PKA, p-JNK, p-ERK, p-p38, and β-actin were determined with Western blotting in the cytosolic fraction. β-actin was used as the loading control (A,B,D,E). The expression levels of MITF and TFIIB were determined with Western blotting in the nuclear fraction. […]

Data set [6] has as its system B16F10 cells. In words: Cell viability, EZ-Cytox assay. The class given is cell-based, mouse. The conditions noted are these: 5–200 µM, 48 h, vs vehicle control. How it is done:
The mouse melanoma cell line B16F10 was acquired from American Type Culture Collection (ATCC®; CCL-6475™) (Manassas, VA, USA) and cultured in DMEM, supplemented with 10% fetal bovine serum (FBS) and 1% penicillin–streptomycin, at 37 °C in a humidified 5% CO2 atmosphere. Cell viability assays were performed with minor modifications, as previously reported. Cell viability was evaluated using the EZ-Cytox assay kit (DaeilLab, Seoul, Korea). The compounds were dissolved in DMSO for the in vitro experiments.
The EZ-Cytox assay was used to estimate cell viability. […] Consequently, 20 µM sample concentrations of compounds 1–3 and trolox were used for further experiments.
Figure 4 Effects of compounds 1–3 and trolox on the viability of B16F10 cells. Cells were incubated with different concentrations (5–200 µM) of compound 1 (A), 2 (B), 3 (C), and trolox (D) for 48 h, and cell viability was determined using EZ-Cytox assay. *** p < 0.001 vs. DMSO-treated.

[7] abbreviates: cytosolic fraction, 5, 10 and 20 µM.

Sequence of mushroom tyrosinase (C7FF04 1-392): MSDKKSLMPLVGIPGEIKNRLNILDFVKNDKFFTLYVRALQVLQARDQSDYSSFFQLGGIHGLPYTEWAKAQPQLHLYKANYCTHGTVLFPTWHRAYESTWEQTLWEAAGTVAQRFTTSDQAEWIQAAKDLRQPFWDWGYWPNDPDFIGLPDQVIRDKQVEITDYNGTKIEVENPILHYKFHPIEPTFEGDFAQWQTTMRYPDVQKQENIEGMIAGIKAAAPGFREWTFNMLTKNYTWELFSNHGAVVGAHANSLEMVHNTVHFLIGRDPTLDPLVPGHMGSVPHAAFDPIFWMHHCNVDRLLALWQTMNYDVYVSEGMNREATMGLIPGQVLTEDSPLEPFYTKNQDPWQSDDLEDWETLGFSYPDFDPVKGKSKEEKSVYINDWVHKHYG

Turning to `O=c1/c(=C/c2ccc(O)cc2)sc2nc3ccccc3n12` [Compound 1], the melting point was at least 300 °C. The “Inhibition Type” value at mushroom tyrosinase is recorded as “Competitive”. Also, the IC50 in data set [1] was at least 50 µM. The “effect on melanin contents” value in the data set on B16F10 cells [2] is on record as “reduced the melanin content at 20 µM”.
For `O=c1/c(=C/c2ccc(O)c(O)c2)sc2nc3ccccc3n12` [Compound 2], the melting point was at least 300 °C. Also, the “Inhibition Type” value on mushroom tyrosinase is reported as “Competitive”. In data set [1], this molecule registered an IC50 of 2.36 ± 0.48 µM. In the data set with B16F10 cells [3], the “SIN-1-induced ROS generation in cells” value was “dose-dependently scavenged ROS; also recorded: reduced SIN-1-induced ROS generation in a dose-dependent manner”. Moreover, in data set [4] (setting [7]), the “expression of tyrosinase, phosphorylated CREB and PKA” value is listed as “decreased their expression on these proteins in a dose-dependent manner”; the “levels of phosphorylated JNK and ERK” value is “decreased the levels of phosphorylated JNK and ERK in a concentration-dependent manner”; the “levels of phosphorylated p38” value is reported as “not affected”. Also, the MITF levels entry in data set [4] (nuclear fraction, 5, 10 and 20 µM) is on record as “significantly suppressed MITF levels”. The “mRNA levels of tyrosinase, TRP1, TRP2 and MITF” value in data set [5] is given as “significantly inhibited the expression”.
`O=c1/c(=C/c2ccc(O)cc2O)sc2nc3ccccc3n12` [Compound 3] gave a melting point of 263.7 to 268.3 °C. Besides, the “Inhibition Type” value at mushroom tyrosinase is “Competitive”. In data set [1], this molecule registered an IC50 of at least 50 µM.
`COc1cc(/C=c2\sc3nc4ccccc4n3c2=O)ccc1O` [Compound 4]: the melting point was in the range of 262.3 to 264 °C.
On the same count and under the same terms, with `CCOc1cc(/C=c2\sc3nc4ccccc4n3c2=O)ccc1O` [Compound 5] the figure was 210.7 °C; with `COc1ccc(/C=c2\sc3nc4ccccc4n3c2=O)cc1O` [Compound 6], 249.6 to 252.1 °C; with `COc1ccc(/C=c2\sc3nc4ccccc4n3c2=O)cc1` [Compound 7], 239.5 to 241.8 °C.
Molecule `COc1ccc(/C=c2\sc3nc4ccccc4n3c2=O)cc1OC` [Compound 8] came in with a melting point of 236.7 to 236.9 °C.
As to `COc1ccc(/C=c2\sc3nc4ccccc4n3c2=O)c(OC)c1` [Compound 9], the melting point fell in the range of 250.1 to 257.5 °C.
The molecule `O=c1/c(=C/c2ccccc2O)sc2nc3ccccc3n12` [Compound 10] showed a melting point of 244.2 to 245.2 °C.
In turn, `COc1cc(/C=c2\sc3nc4ccccc4n3c2=O)cc(OC)c1OC` [Compound 11] returned a melting point of 215.1 °C.
The same measure, in the same setting: under `COc1cc(/C=c2\sc3nc4ccccc4n3c2=O)cc(OC)c1O` [Compound 12] stands 261.9 to 269.1 °C; under `O=c1/c(=C/c2ccc(O)c(Br)c2)sc2nc3ccccc3n12` [Compound 13], 293.7 to 297 °C.
Turning to `Cc1c(C)c2c(c(C)c1O)CCC(C)(C(=O)O)O2` (stereo not shown) [Trolox, reference compound], in the data set on B16F10 cells [6], the cell viability entry is reported as “did not significantly affect cell viability at concentrations up to 20 µM”. In data set [1], this molecule had an IC50 of 13.2 ± 0.73 µM.

The values are drawn from article PMC8301170, “New Benzimidazothiazolone Derivatives as Tyrosinase Inhibitors with Potential Anti-Melanogenesis and Reactive Oxygen Species Scavenging Activities” (Antioxidants, 2021).
